Data reported in patent US6339045B1, “N-(unsubstituted or substituted)-4-substituted-6-(unsubstituted or substituted)phenoxy-2-pyridinecarboxamides or thiocarboxamides, processes for producing the same, and herbicides” (Kureha Kagaku Kogyo Kabushiki Kaisha, priority 1995, dated 2002).

Tests used:
Assay in all cases: Herbicidal effect by foliage and soil treatment
Type in all cases: in vivo
Details in all cases: 10 g ai/10a, evaluated after 14 days
[1] = tested on: ivyleafspeedwell (Veronica hederaefolia)
Summary of the method: (§1)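 Read-out: rated growth inhibition relative to non-treated plants 14 days after spraying. Young plants (cotyledon to two leaves) received a foliage-and-soil spray of compound in aqueous Tween 20 at a controlled rate, greenhouse at 19–25 °C.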

[2] = tested on: wild chamomile (Matricaria chamomilla)
Summary of the method: as §1

[3] = tested on: cleavers (Galium aparine)
Summary of the method: as §1

[4] = tested on: common chickweed (Stellaria media)
Summary of the method: as §1

[5] = tested on: sicklepod (Cassia obtusifolia)
Summary of the method: as §1

[6] = tested on: redroot pigweed (Amaranthus retroflexus)
Summary of the method: as §1

[7] = tested on: black nightshade (Solanum nigrum)
Summary of the method: as §1

[8] = tested on: velvetleaf (Abutilon theophrasti)
Summary of the method: as §1

[9] = tested on: common blackjack (Bidens pilosa)
Summary of the method: as §1

[10] = tested on: field bindweed (Convolvulus arvensis)
Summary of the method: as §1

[11] = tested on: kediock (Sinapis arvensis)
Summary of the method: as §1

SMILES | herbicidal activity rating, VH (Veronica hederaefolia) [1] | herbicidal activity rating, MC (Matricaria chamomilla) [2] | herbicidal activity rating, GA (Galium aparine) [3] | herbicidal activity rating, SM (Stellaria media) [4] | herbicidal activity rating, CO (Cassia obtusifolia) [5] | herbicidal activity rating, AR (Amaranthus retroflexus) [6] | herbicidal activity rating, SN (Solanum nigrum) [7] | herbicidal activity rating, AT (Abutilon theophrasti) [8] | herbicidal activity rating, BP (Bidens pilosa) [9] | herbicidal activity rating, CA (Convolvulus arvensis) [10] | herbicidal activity rating, SA (Sinapis arvensis) [11]
CSc1cc(Oc2cccc(C(F)(F)F)c2)nc(C(=O)NC(C)C)c1 [Compound I-55, N-(i-propyl)-4-methylmercapto-6-{3-(trifluoromethyl)phenoxy}-2-pyridine carboxamide] | 5 (percentage of weeds killed was not less than 80%) | 3 (percentage of weeds killed was not less than 40% and less than 60%) | 5 (percentage of weeds killed was not less than 80%) | 4 (percentage of weeds killed was not less than 60% and less than 80%) | 5 (percentage of weeds killed was not less than 80%) | 5 (percentage of weeds killed was not less than 80%) | 5 (percentage of weeds killed was not less than 80%) | 4 (percentage of weeds killed was not less than 60% and less than 80%) | 4 (percentage of weeds killed was not less than 60% and less than 80%) | 4 (percentage of weeds killed was not less than 60% and less than 80%) | 4 (percentage of weeds killed was not less than 60% and less than 80%)
COc1cc(Oc2cccc(C(F)(F)F)c2)nc(C(=O)NC2CCCCC2)c1 [Compound I-43] | 5 (percentage of weeds killed was not less than 80%) | 4 (percentage of weeds killed was not less than 60% and less than 80%) | 5 (percentage of weeds killed was not less than 80%) | 5 (percentage of weeds killed was not less than 80%) | 5 (percentage of weeds killed was not less than 80%) | 5 (percentage of weeds killed was not less than 80%) | 5 (percentage of weeds killed was not less than 80%) | 4 (percentage of weeds killed was not less than 60% and less than 80%) | 4 (percentage of weeds killed was not less than 60% and less than 80%) | 5 (percentage of weeds killed was not less than 80%) | 5 (percentage of weeds killed was not less than 80%)
CCSCCNC(=O)c1cc(OC)cc(Oc2cccc(C(F)(F)F)c2)n1 [Compound I-67, N-{2-(ethylmercapto)ethyl}-4-methoxy-6-{3-(trifluoromethyl)phenoxy}-2-pyridine carboxamide] | 5 (percentage of weeds killed was not less than 80%) | 3 (percentage of weeds killed was not less than 40% and less than 60%) | 5 (percentage of weeds killed was not less than 80%) | 4 (percentage of weeds killed was not less than 60% and less than 80%) | 5 (percentage of weeds killed was not less than 80%) | 5 (percentage of weeds killed was not less than 80%) | 5 (percentage of weeds killed was not less than 80%) | 4 (percentage of weeds killed was not less than 60% and less than 80%) | 3 (percentage of weeds killed was not less than 40% and less than 60%) | 5 (percentage of weeds killed was not less than 80%) | 5 (percentage of weeds killed was not less than 80%)
